Assay results: patent US8044057B2, “Methods for suppressing an immune response or treating a proliferative disorder” (The United States of America as represented by the …, priority 2003, dated 2011)

Test system: PASM cells
Test: Propidium iodide flow cytometry cell cycle analysis in PASM cells
Format: cell-based, human
Details: 24 hours
Experimental: FIGS. 5A-5B are bar graphs showing that LY303511 inhibits the cell cycle by causing combined G1 and G2/M arrest and that LY303511 inhibits CK2 activity. For the data shown in FIG. 5A, PASM cells were cultured in medium with FBS for 48 hours before the addition of 0-100 μM LY303511 without or with raparnycin, 400 ng/ml, for 24 hours. Cells were then harvested and incubated with propidium iodide for 2 hours before counting using a Becton-Dickson FACSCalibur. Data are the means (±SEM) of percentages of cells in G1, S, or G2/M phase of the cell cycle in three experiments with duplicate assays. *p<0.05 vs. DMSO control, or †p<0.05 vs. 10 μM LY303511, by Student's t—test. FIG. 5B is a bar graph showing that LY303511 or LY294002 inhibits CK2 in vitro. […] Data are the means of values for samples with inhibitors expressed as percentage of that for control, which was (mean±SEM) 0.2±0.03 pmol phosphate/100 ng protein/10 min. […]
In order to investigate the effect of LY303511 on the cell cycle, A549 cells or pulmonary artery smooth muscle cells were grown to sub-confluence in serum-containing media, and incubated with vehicle, 10, or 100 mcM LY303511, without or with Rapamycin (200 ng/ml), for 24 hours. […] The proportion of cells in G1, S, or G2/M phase of the cell cycle for each experimental condition was determined. […]

For `O=c1cc(N2CCNCC2)oc2c(-c3ccccc3)cccc12` [LY303511, 2-(4-piperazinyl)-8-phenyl-4H-1-benzopyran-4-one], the “G1 phase cells (G1 arrest)” value was “negligible” and the “proportion of cells in S phase” value was “reduced the proportion of cells in S phase”.
